One block for each compound: values may come before it. Activity calls are given as the source filed them.
Key:
[1] = Luminescence-based cell-based high throughput dose response assay to identify activators of the DAF-12 from the parasite S. stercoralis (ssDAF-12).; type: functional
[2] = molecular target: Oxysterols receptor LXR-beta (Homo sapiens, UniProt P55055); assay: LXR agonists, Gal4 luciferase reporter, dose response, counter-screen for ssDAF-12 agonist project, cell-based, luminescence, HEK293, S. stercoralis campaign (AID 720737); type: functional; details: read-out: IC50 (the source's name)
Oxysterols receptor LXR-beta, sequence (P55055 whole entry, the tested form may be a part): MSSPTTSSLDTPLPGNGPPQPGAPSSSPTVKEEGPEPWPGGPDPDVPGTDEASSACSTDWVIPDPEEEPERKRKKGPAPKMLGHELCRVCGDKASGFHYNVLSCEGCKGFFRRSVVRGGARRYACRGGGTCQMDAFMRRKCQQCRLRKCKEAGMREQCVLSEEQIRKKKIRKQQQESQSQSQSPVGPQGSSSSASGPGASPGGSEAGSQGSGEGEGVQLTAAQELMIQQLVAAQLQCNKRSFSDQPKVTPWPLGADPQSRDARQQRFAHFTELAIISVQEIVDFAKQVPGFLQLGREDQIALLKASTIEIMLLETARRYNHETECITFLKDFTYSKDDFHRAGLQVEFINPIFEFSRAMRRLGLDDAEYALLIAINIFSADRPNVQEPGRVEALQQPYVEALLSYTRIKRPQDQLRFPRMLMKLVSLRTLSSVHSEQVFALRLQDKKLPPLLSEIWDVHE

Bcl-2-related protein A1 [3] = molecular target: T1, Bcl-2-related protein A1 (Mus musculus, UniProt Q07440); assay: displacement of Bid BH3 peptide from Bfl-1 – biochemical, fluorescence polarization, FITC-Bid, mouse, primary screen (AID 432)
T1 sequence (Q07440 whole entry): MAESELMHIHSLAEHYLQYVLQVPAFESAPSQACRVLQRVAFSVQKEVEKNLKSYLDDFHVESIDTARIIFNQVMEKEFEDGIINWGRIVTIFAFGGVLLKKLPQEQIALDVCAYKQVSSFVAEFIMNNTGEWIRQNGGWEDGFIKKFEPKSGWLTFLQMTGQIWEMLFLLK

Bcl-2-related protein A1 [4] = molecular target: T1, Bcl-2-related protein A1; assay: small-molecule antagonists of Bfl-1/BH3 interaction – biochemical, TR-FRET, mouse Bfl-1, confirmation (AID 621);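 note: TR-FRET binding of GST-Bfl-1 to FITC-labelled Bid peptide via terbium antibody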
cells = details: HEK293
[5] = Dd2 malaria parasite growth inhibition potency – SYBR Green, dry powder samples, dose response (AID 1159566); type: functional, cell-based;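 note: potency for growth inhibition with lower SYBR green DNA signal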
Paired box protein Pax-8 = Paired box protein Pax-8 (Homo sapiens, UniProt Q06710); assay: PAX8 transcriptional activity inhibition in RMG-I – RMG-I cells, luciferase, cherry-pick, dose response (AID 687027); type: functional, cell-based;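 note: luciferase reporter driven by Pax8 target thyroperoxidase promoter measured by SteadyGlo luminescence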
Paired box protein Pax-8, sequence (Q06710 whole entry): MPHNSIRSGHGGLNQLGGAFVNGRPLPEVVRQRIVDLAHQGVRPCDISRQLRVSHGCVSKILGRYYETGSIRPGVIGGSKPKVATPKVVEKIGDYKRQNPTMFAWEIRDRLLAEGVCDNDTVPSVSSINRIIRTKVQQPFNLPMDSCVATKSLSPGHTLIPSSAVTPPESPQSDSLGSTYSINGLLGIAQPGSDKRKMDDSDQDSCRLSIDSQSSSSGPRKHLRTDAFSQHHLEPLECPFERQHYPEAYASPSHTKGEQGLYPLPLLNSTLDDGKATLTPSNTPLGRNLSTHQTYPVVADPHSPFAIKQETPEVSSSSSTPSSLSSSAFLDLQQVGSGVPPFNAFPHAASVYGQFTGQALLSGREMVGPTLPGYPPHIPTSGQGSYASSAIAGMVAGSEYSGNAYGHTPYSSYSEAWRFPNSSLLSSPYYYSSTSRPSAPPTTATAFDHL

[6] = growth inhibition of yeast DHODH-expressing 3D7 parasites – SYBR Green, dry powder samples, dose response (AID 1159570); type: functional, cell-based;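 note: parasite growth measured after 72 hours of compound exposure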
[7] = OVCAR-3 cell viability loss – plate reader, dry powder samples, PAX8 inhibitor project, dose response (AID 743044); type: functional, cell-based
[8] = toxicity toward immortalized ovarian surface epithelium – cell-based, plate reader, dry powder samples, cytotoxicity control for PAX8 inhibitor project, dose response (AID 743045); type: functional
[9] = toxicity to human HepG2 hepatoma cells – cell-based, plate reader, dry powder samples, cytotoxicity control, dose response (AID 1159569); type: functional;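 note: inhibitor potency with signal falling toward the positive control level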
[10] = P. falciparum Dd2 growth inhibitors, dose response, SYBR Green, cherry-picked samples (AID 1159567); type: functional, cell-based
[11] = growth inhibition of PfATP4-mutant resistant parasites – NITD609-resistant line, SYBR Green, dry powder, dose response (AID 1159571); type: functional, cell-based;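 note: parasites synchronized at ring stage by sorbitol before testing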
[12] = IGROV1 cell killing – plate reader, dry powder samples, PAX8 inhibitor project, dose response (AID 743043); type: functional, cell-based; details: IGROV-1
[13] = general cell-killing toxicity readout – plate reader, dry powder samples, cytotoxicity control for PAX8 inhibitor project, dose response (AID 743021); type: functional, cell-based
[14] = A2780 cell killing – plate reader, dry powder samples, cytotoxicity control, dose response (AID 743046); type: functional, cell-based
[15] = OVCAR8 cell viability loss – plate reader, dry powder samples, PAX8 project, dose response (AID 743197); type: functional, cell-based; details: OVCAR-8
Phospholipase D1 = molecular target: T2, Phospholipase D1 (Homo sapiens, UniProt Q13393); assay: PLD1 Cellular Concentration Response Study.; type: functional
T2 sequence (Q13393 whole entry): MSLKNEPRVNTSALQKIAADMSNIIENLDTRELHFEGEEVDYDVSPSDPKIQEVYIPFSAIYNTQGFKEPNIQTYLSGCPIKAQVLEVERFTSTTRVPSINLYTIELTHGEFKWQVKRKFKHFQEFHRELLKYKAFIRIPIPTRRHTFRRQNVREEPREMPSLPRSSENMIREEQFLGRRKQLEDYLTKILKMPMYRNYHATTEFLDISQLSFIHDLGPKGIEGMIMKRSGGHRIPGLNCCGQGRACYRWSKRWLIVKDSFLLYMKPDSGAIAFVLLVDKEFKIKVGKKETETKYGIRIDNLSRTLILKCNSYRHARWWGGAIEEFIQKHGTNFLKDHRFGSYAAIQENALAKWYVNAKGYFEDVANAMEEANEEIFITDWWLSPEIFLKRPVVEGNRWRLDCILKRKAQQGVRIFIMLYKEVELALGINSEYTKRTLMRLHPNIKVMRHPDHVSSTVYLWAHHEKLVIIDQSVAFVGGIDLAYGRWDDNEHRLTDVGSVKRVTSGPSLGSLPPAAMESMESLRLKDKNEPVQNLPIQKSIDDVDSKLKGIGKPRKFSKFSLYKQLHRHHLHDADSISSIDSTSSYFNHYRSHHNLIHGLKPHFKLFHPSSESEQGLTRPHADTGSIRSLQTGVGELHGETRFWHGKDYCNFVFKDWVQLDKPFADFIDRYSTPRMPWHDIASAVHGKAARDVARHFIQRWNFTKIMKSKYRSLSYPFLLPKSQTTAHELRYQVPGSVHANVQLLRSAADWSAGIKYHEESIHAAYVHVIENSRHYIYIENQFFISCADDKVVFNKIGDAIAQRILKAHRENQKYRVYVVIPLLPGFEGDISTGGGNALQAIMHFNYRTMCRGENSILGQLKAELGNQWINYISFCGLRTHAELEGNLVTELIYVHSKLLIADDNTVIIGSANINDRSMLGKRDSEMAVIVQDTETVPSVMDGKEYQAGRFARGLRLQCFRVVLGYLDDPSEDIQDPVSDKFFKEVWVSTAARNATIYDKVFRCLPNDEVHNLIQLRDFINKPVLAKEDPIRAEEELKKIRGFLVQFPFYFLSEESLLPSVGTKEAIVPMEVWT

Phospholipase D2 = Phospholipase D2 (Homo sapiens, UniProt O14939); assay: PLD2 Cellular Concentration Response Study.; type: functional
Phospholipase D2, sequence (O14939 whole entry, the tested form may be a part): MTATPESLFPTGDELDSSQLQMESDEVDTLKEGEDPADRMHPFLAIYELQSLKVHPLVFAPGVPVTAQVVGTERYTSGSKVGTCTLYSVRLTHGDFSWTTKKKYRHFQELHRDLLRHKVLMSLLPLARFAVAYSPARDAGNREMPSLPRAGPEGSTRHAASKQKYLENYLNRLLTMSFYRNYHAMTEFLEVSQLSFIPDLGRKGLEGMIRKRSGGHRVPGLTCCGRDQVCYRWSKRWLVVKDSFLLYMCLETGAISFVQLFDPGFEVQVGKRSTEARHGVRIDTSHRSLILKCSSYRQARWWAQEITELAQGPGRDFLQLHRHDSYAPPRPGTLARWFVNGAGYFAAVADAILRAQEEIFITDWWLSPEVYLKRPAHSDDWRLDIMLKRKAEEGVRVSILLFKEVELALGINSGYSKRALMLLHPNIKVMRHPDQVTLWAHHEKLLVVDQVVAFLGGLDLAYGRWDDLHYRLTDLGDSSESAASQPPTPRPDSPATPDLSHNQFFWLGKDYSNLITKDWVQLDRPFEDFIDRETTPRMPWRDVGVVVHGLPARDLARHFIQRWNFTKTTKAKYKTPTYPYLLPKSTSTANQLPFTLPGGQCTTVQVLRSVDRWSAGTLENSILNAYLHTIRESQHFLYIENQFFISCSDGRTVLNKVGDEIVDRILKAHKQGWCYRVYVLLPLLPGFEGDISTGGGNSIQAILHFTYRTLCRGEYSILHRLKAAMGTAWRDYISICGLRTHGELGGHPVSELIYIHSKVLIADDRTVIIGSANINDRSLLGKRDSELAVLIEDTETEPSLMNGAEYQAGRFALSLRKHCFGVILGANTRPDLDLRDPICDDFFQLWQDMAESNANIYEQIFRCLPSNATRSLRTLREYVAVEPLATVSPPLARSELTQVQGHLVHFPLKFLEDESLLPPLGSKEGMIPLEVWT

[16] = molecular target: E3 ubiquitin-protein ligase UHRF1 (Homo sapiens, UniProt Q96T88); assay: Counterscreen for inhibitors of 5-meCpG-binding domain protein 2 (MBD2): TRFRET-based biochemical high throughput dose response assay to identify inhibitors of binding of ubiquitin-like with PHD and ring finger domains 1 (UHRF1) to methylated oligonucleotide.
E3 ubiquitin-protein ligase UHRF1, sequence (Q96T88 whole entry, the tested form may be a part): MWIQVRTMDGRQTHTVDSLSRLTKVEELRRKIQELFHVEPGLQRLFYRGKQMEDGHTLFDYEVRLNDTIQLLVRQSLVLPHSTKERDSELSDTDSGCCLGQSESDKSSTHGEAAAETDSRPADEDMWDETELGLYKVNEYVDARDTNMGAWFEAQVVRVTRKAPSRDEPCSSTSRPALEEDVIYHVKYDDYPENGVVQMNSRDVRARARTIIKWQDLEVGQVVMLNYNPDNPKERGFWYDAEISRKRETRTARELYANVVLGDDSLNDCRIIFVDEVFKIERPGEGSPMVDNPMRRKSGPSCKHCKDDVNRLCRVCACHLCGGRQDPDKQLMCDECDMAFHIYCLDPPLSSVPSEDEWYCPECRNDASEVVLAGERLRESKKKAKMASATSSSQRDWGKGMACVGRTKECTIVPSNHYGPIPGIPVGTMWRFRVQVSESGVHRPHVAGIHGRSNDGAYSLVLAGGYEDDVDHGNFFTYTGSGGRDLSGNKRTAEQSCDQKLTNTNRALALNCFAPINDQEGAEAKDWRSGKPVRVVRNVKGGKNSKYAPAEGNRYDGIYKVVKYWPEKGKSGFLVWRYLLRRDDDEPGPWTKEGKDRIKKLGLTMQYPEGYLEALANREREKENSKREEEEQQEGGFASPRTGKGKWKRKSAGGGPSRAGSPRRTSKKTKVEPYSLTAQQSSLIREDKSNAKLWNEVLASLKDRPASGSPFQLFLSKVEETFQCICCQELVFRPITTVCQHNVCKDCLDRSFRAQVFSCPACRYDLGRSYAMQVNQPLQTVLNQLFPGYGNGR

[17] = molecular target: Neuropeptide Y receptor type 2 (Homo sapiens, UniProt P49146); assay: IC50 for human NPY-Y2 blockade – cell-based, counter-screen for NPY-Y1 antagonist project, dose response (AID 1278); type: functional
Neuropeptide Y receptor type 2, sequence (P49146 whole entry): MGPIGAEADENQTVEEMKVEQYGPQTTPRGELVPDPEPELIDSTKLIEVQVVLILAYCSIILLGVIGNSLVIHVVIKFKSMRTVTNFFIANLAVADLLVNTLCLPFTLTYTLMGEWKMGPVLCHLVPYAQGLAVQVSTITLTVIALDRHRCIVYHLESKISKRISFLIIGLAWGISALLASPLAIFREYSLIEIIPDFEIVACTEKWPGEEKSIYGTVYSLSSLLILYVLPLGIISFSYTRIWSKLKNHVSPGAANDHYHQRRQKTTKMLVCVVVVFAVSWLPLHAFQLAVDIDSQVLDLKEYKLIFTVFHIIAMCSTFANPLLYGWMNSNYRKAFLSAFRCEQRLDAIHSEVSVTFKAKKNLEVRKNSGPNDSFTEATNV

[18] = molecular target: Peroxisome proliferator-activated receptor gamma/Nuclear receptor coactivator 1 (Homo sapiens, UniProt P37231); type: functional;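 note: agonist potency as compounds enhance coactivator SRC-1 recruitment to PPARgamma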
[19] = molecular target: Peroxisome proliferator-activated receptor gamma/Nuclear receptor coactivator 2 (Homo sapiens, UniProt P37231); type: functional;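 note: agonist potency for raising coactivator recruitment to the receptor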
Peroxisome proliferator-activated receptor gamma/Nuclear receptor coactivator 2, sequence (P37231 whole entry): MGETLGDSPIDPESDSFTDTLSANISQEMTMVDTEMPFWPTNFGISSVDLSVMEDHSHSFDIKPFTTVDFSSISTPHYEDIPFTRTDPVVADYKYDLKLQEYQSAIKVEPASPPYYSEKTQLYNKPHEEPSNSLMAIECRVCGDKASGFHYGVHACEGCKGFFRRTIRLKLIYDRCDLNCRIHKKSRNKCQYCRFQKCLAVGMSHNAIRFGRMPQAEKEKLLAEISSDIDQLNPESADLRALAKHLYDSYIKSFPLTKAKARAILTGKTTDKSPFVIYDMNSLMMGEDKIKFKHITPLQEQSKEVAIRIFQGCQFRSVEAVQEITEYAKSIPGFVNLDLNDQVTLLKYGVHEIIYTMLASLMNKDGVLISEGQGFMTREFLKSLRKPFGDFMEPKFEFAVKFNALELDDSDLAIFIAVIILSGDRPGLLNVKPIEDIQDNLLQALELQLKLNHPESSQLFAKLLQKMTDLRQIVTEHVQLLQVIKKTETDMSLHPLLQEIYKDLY
Peroxisome proliferator-activated receptor gamma/Nuclear receptor coactivator 2, sequence (Q15596 whole entry, further chain): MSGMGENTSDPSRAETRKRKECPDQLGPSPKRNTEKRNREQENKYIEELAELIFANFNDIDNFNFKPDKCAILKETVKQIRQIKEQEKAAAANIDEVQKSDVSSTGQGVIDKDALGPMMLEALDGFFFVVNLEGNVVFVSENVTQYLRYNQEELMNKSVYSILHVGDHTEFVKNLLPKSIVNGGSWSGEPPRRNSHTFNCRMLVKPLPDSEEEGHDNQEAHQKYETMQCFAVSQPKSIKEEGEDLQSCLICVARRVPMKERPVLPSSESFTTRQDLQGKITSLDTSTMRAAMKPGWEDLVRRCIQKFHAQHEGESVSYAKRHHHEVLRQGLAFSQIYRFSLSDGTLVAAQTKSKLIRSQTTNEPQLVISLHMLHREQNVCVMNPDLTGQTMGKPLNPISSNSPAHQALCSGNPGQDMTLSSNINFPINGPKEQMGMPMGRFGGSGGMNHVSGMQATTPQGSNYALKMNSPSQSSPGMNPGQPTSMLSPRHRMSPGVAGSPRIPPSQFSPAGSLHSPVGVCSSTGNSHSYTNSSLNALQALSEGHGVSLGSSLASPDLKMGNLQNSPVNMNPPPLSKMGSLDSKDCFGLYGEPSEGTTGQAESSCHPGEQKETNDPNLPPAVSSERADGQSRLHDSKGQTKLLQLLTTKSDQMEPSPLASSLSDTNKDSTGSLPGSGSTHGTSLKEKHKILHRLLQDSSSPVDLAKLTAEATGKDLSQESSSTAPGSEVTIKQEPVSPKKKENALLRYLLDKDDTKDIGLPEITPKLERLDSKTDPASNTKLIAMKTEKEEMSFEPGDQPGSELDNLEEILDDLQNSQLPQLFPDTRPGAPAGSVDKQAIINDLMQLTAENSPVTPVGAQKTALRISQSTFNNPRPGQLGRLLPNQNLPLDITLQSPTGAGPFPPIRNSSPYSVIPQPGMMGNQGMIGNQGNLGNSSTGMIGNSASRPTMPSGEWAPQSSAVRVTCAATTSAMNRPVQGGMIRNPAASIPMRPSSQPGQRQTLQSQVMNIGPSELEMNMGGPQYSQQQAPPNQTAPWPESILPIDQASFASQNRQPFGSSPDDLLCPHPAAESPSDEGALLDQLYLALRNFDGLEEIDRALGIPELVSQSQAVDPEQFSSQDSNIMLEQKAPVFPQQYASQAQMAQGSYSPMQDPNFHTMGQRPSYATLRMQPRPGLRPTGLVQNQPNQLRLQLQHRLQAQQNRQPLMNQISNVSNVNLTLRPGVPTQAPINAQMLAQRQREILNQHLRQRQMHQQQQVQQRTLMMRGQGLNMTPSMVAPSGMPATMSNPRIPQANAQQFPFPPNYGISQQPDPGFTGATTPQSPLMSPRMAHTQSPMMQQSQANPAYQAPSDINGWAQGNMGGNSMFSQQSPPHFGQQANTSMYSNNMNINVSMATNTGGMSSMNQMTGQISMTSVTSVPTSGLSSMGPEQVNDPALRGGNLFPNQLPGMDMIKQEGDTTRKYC

[20] = molecular target: Peroxisome proliferator-activated receptor gamma/Nuclear receptor coactivator 3 (Homo sapiens, UniProt P37231); type: functional;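 note: agonist potency for raising coactivator recruitment to the receptor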

Compound: CCc1ccc(-c2csc3ncn(CC)c(=O)c23)cc1
IC50 [1]: > 67.6 µM (inactive) | EC50 [2]: > 67.6 µM (inactive)

IC50 (Bcl-2-related protein A1 [3]): 18.1 µM (active) | IC50 (Bcl-2-related protein A1 [4]): > 100 µM (not active)
Compound: COc1ccc(-c2nnc3sc(-c4c(OC)cccc4OC)nn23)cc1

Compound: COc1ccccc1OCCn1c(SC)nc2ccccc21
AC50 (cells): 29.1 µM (active)

Compound: C[C@H]1CN([C@@H](C)CO)C(=O)c2c(c3ccccc3n2C)-c2ccccc2CO[C@H]1CN(C)S(=O)(=O)c1ccc([N+](=O)[O-])cc1
AC50 [5]: 0.234 µM (active) | AC50 (Paired box protein Pax-8): 2.72 µM (active) | AC50 [6]: 0.298 µM (active) | AC50 [7]: 10.1 µM (active) | AC50 [8]: 22.3 µM (active) | AC50 [9]: 66.4 µM (active) | AC50 [10]: 0.629 µM (active) | AC50 [11]: 0.237 µM (active) | AC50 [12]: 12.2 µM (active) | AC50 [13]: 48.5 µM (active) | AC50 [14]: 12.7 µM (active) | AC50 [15]: 10.2 µM (active)

Compound: O=C(NCCN1CCC2(CC1)C(=O)NCN2C(=O)C1CC1)c1ccc2ccccc2c1
IC50 (Phospholipase D1): 3.1 µM (active) | IC50 (Phospholipase D2): 0.44 µM (active)

IC50 [16]: 15.3 µM (inactive)
Compound: CC(=O)Nc1sc2c(c1-c1nc3ccccc3s1)CCCNC2

IC50 [17]: > 35 µM (not active) | EC50 [18]: > 79.4 µM (not active) | EC50 [19]: > 79.4 µM (not active) | EC50 [20]: > 79.4 µM (not active)
Compound: Cn1ccnc1C1CCCCN1Cc1nc(-c2ccc3c(c2)OCO3)no1 (centres undefined)

From ChEMBL document CHEMBL1201862, “PubChem BioAssay data set” (2004)
